Source: patent US20260022116A1, “IMIDAZOPYRIDINE COMPOUNDS, PREPARATION THEREOF AND THERAPEUTIC USES THEREOF” (SANOFI, priority 2022, published 2026)
Counter-ions that a name gives are not always drawn.

Target: ERK5 (Homo sapiens, UniProt Q13164)
Assay: cell-based
Description: Two assays were performed to assess the ERK5 inhibitory activity of compounds of the Examples, a cell-based assay and a cell-free biochemical assay.
The renal cancer cell line SN12C was transduced by a lentivirus pGreenFire1 MEF2 EF1 Neo (ref TR030VA-N) from SBI using standard infection protocol. pGreenFire1 MEF2 EF1 Neo allows the expression of luciferase gene under the control of minimal promoter with MEF2 transcriptional response elements. Cells harboring the reporter construct were selected by geneticin treatment. The selected cells were then transposed by a piggyback based plasmid pCM4007 allowing the expression of constitutively activated MEK5DD under control of TREG3 promoter, a doxycycline regulated promoter. Transposed cells were selected by puromycin treatment. Upon doxycycline treatment (1 μg/ml) MEK5DD was expressed. MEK5DD activates ERK5 that phosphorylates MEF2C protein. Activated MEF2C protein can bind to its transcriptional response elements. Then the luciferase is expressed. In a 96-well plate (96F nuncleon ref137101 thermofisher), 50,000 cells were inoculated in 142.5 μl of RPMI medium containing 10% fetal calf serum, 1% glutamine, and 1 μg/ml doxycycline. […] The luciferase activity was measured using the Kit Bright Glo Luminescent Cell Assay Cat E2610 (Promega) according to the manufacturer's protocol. Luminescence was determined using 0.2 second reading/well using a Tecan SPARK. IC50 values were calculated using XLFIT5 for Microsoft Excel using method 205.

ERK5, sequence (Q13164 whole entry): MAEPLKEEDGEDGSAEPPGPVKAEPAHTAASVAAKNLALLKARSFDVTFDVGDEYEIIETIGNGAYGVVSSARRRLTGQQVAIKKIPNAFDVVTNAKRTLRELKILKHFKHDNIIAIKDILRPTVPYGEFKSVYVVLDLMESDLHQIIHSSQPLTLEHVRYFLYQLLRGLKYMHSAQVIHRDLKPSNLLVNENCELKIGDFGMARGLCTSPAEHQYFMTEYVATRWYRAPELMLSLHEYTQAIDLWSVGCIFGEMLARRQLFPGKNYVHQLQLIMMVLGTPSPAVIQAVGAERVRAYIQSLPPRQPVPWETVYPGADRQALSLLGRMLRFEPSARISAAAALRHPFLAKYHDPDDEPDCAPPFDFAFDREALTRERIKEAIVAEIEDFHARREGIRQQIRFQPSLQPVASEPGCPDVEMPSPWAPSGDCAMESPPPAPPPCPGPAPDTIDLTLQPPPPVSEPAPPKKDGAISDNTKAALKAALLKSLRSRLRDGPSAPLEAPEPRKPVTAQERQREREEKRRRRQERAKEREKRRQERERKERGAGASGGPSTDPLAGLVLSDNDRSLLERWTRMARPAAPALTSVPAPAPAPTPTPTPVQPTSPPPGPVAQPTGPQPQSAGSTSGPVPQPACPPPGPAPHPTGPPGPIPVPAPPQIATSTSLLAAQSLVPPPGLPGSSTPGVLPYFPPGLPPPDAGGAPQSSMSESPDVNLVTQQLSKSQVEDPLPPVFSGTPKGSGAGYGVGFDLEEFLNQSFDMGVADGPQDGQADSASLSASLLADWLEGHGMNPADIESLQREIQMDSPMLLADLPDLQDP

IC50 [µM]	SMILES
> 10	O=C(c1ccc(OC(F)(F)F)cc1)N1CCC(c2ccnc3[nH]c(-c4csc(-c5cc(Cl)ccc5O)n4)nc23)CC1 [Example 135, [4-[2-[2-(5-chloro-2-hydroxy-phenyl)thiazol-4-yl]-3H-imidazo[4,5-b]pyridin-7-yl]-1-piperidyl]-[4-(trifluoromethoxy)phenyl]methanone]
> 10	CCn1cc(N)c(C(=O)N2CCC(c3ccnc4[nH]c(C5CCOCC5)nc34)CC2)n1 [Example 115, (4-amino-1-ethyl-pyrazol-3-yl)-[4-(2-tetrahydropyran-4-yl-3H-imidazo[4,5-b]pyridin-7-yl)-1-piperidyl]methanone]
> 10	O=C(C1CC12C(=O)Nc1ccccc12)N1CCC(c2ccnc3[nH]c(C4CCOCC4)nc23)CC1 (stereo not shown) [Example 117, 2-[4-(2-tetrahydropyran-4-yl-3H-imidazo[4,5-b]pyridin-7-yl)piperidine-1-carbonyl]spiro[cyclopropane-1,3′-indoline]-2′-one]
7.94	Cc1cc2ncc(C(=O)N3CCC(c4ccnc5[nH]c(C6CCOCC6)nc45)CC3)c(N)n2n1 [Example 109, (7-amino-2-methyl-pyrazolo[1,5-a]pyrimidin-6-yl)-[4-(2-tetrahydropyran-4-yl-3H-imidazo[4,5-b]pyridin-7-yl)-1-piperidyl]methanone]
> 10	COC12CC(C(=O)N3CCC(c4ccnc5[nH]c(C6CCOCC6)nc45)CC3)(C1)C2 [Example 58, (3-Methoxy-1-bicyclo[1.1.1]pentanyl)-[4-(2-tetrahydropyran-4-yl-3H-imidazo[4,5-b]pyridin-7-yl)-1-piperidyl]methanone]
7.89	O=C(c1cnn2c1NCCC2C(F)(F)F)N1CCC(c2ccnc3[nH]c(C4CCOCC4)nc23)CC1 (stereo not shown) [Example 79, [4-(2-tetrahydropyran-4-yl-3H-imidazo[4,5-b]pyridin-7-yl)-1-piperidyl]-[7-(trifluoromethyl)-4,5,6,7-tetrahydropyrazolo[1,5-a]pyrimidin-3-yl]methanone]
0.041	Nc1cc(OC(F)(F)F)ccc1C(=O)N1CCC(c2ccnc3[nH]c(C4CCOC4)nc23)CC1 (single isomer, unassigned) [Example 187, [2-amino-4-(trifluoromethoxy)phenyl]-[4-[2-[tetrahydrofuran-3-yl]-3H-imidazo[4,5-b]pyridin-7-yl]-1-piperidyl]methanone]
> 10	O=C(C1CC(=O)N(c2ccc(F)cc2)C1)N1CCC(c2ccnc3[nH]c(C4CCOCC4)nc23)CC1 (stereo not shown) [Example 111, 1-(4-fluorophenyl)-4-[4-(2-tetrahydropyran-4-yl-3H-imidazo[4,5-b]pyridin-7-yl)piperidine-1-carbonyl]pyrrolidin-2-one]
> 10	O=C(c1cccc(N2CCCS2(=O)=O)c1)N1CCC(c2ccnc3[nH]c(C4CCOCC4)nc23)CC1 [Example 85, [3-(1,1-dioxo-1,2-thiazolidin-2-yl)phenyl]-[4-(2-tetrahydropyran-4-yl-3H-imidazo[4,5-b]pyridin-7-yl)-1-piperidyl]methanone]
> 10	O=C1CC(C(=O)N2CCC(c3ccnc4[nH]c(C5CCOCC5)nc34)CC2)CN1Cc1ccccc1Cl (stereo not shown) [Example 110, 1-[(2-chlorophenyl)methyl]-4-[4-(2-tetrahydropyran-4-yl-3H-imidazo[4,5-b]pyridin-7-yl)piperidine-1-carbonyl]pyrrolidin-2-one]
3.16	O=C(c1nn(-c2ccccc2C(F)(F)F)cc1O)N1CCC(c2ccnc3[nH]c(C4CCOCC4)nc23)CC1 [Example 89, [4-hydroxy-1-[2-(trifluoromethyl)phenyl]pyrazol-3-yl]-[4-(2-tetrahydropyran-4-yl-3H-imidazo[4,5-b]pyridin-7-yl)-1-piperidyl]methanone]
0.979	CC(C)(C)OC(=O)Nc1cc(OC(F)(F)F)ccc1C(=O)N1CCC(c2ccnc3[nH]c(C4CCOCC4)nc23)CC1 [Example 190, tert-butyl N-[2-[4-(2-tetrahydropyran-4-yl-3H-imidazo[4,5-b]pyridin-7-yl)piperidine-1-carbonyl]-5-(trifluoromethoxy)phenyl]carbamate]
6.48	O=C(c1ccc(OC(F)(F)F)cc1)N1CCC(c2ccnc3[nH]c(-c4cnc5ccc(C(F)(F)F)cc5c4O)nc23)CC1 [Example 230, [4-[2-[4-hydroxy-6-(trifluoromethyl)-3-quinolyl]-3H-imidazo[4,5-b]pyridin-7-yl]-1-piperidyl]-[4-(trifluoromethoxy)phenyl]methanone]
> 10	CC(Oc1ccc(C(F)(F)F)cc1Cl)C(=O)N1CCC(c2ccnc3[nH]c(C4CCOCC4)nc23)CC1 (stereo not shown) [Example 87, 2-[2-chloro-4-(trifluoromethyl)phenoxy]-1-[4-(2-tetrahydropyran-4-yl-3H-imidazo[4,5-b]pyridin-7-yl)-1-piperidyl]propan-1-one]
3.6	O=C(c1n[nH]c2ccccc12)N1CCC(c2ccnc3[nH]c(C4CCOCC4)nc23)CC1 [Example 78, 1H-indazol-3-yl-[4-(2-tetrahydropyran-4-yl-3H-imidazo[4,5-b]pyridin-7-yl)-1-piperidyl]methanone]
> 10	O=S(=O)(c1ccc(OC(F)(F)F)cc1)N1CCC(c2ccnc3[nH]c(C4CCOCC4)nc23)CC1 [Example 165, 2-tetrahydropyran-4-yl-7-[1-[4-(trifluoromethoxy)phenyl]sulfonyl-4-piperidyl]-3H-imidazo[4,5-b]pyridine]
3.27	CCn1c(=O)c(=O)[nH]c2cc(-c3nc4c(C5CCN(C(=O)c6ccc(OC(F)(F)F)cc6)CC5)ccnc4[nH]3)ccc21 [Example 139, 1-ethyl-3-hydroxy-6-[7-[1-[4-(trifluoromethoxy)benzoyl]-4-piperidyl]-3H-imidazo[4,5-b]pyridin-2-yl]quinoxalin-2-one]
0.261	Nc1cc(OC(F)(F)F)ccc1C(=O)N1CCC(c2ccnc3[nH]c(C4CNCC(F)(F)C4)nc23)CC1 (single isomer, unassigned) [Example 162, [2-amino-4-(trifluoromethoxy)phenyl]-[4-[2-[5,5-difluoro-3-piperidyl]-3H-imidazo[4,5-b]pyridin-7-yl]-1-piperidyl]methanone]
> 10	O=C(C1CC(=O)N(c2ccc(F)c(F)c2)C1)N1CCC(c2ccnc3[nH]c(C4CCOCC4)nc23)CC1 (stereo not shown) [Example 107, 1-(3,4-difluorophenyl)-4-[4-(2-tetrahydropyran-4-yl-3H-imidazo[4,5-b]pyridin-7-yl)piperidine-1-carbonyl]pyrrolidin-2-one]
2.25	Nc1c(C(=O)N2CCC(c3ccnc4[nH]c(C5CCOCC5)nc34)CC2)sc(C(F)(F)F)c1-c1ccccc1 [Example 92, [3-amino-4-phenyl-5-(trifluoromethyl)-2-thienyl]-[4-(2-tetrahydropyran-4-yl-3H-imidazo[4,5-b]pyridin-7-yl)-1-piperidyl]methanone]
0.027	Nc1cc(OC(F)(F)F)ccc1C(=O)N1CCC(c2ccnc3[nH]c(C4CCOC4)nc23)CC1 (single isomer, unassigned) [Example 186, [2-amino-4-(trifluoromethoxy)phenyl]-[4-[2-[tetrahydrofuran-3-yl]-3H-imidazo[4,5-b]pyridin-7-yl]-1-piperidyl]methanone]
0.195	CO[C@H]1CC[C@H](c2nc3c(C4CCN(C(=O)c5ccc(OC(F)(F)F)cc5)CC4)ccnc3[nH]2)CC1 [Example 153, (trans)-[4-(trifluoromethoxy)phenyl]-[4-[2-(4-methoxycyclohexyl)-3H-imidazo[4,5-b]pyridin-7-yl]-1-piperidyl]methanone;hydrochloride]
